pIC50: −log10 of the molar value. Calls of active or inactive are those of the source.
How the values were obtained:
[1] = blockade of melanocortin 4 receptor signaling – cell-based, plate reader, cherry pick, counter-screen for LGR2 antagonist project, dose response (AID 743444); assay type: functional;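 note: transfected HEK 293 cells stimulated with alpha-MSH peptide; potency of inhibitors of the alpha-MSH evoked signal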
[2] = biological target: T1, Heat shock factor protein 1 (Mus musculus, UniProt P38532); experiment: enhancement of HSF1-driven luciferase signal – cell-based, NIH3T3, luminescence, dose retest, confirmation (AID 435004); assay type: functional;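 note: stress induced by proteasome inhibitor MG132 added 30 min after compound; luciferase reporter driven by HSF1 response element in NIH3T3 cells; actives raise luminescence as potentiators of the MG132 stress response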
T1 sequence (P38532 whole entry): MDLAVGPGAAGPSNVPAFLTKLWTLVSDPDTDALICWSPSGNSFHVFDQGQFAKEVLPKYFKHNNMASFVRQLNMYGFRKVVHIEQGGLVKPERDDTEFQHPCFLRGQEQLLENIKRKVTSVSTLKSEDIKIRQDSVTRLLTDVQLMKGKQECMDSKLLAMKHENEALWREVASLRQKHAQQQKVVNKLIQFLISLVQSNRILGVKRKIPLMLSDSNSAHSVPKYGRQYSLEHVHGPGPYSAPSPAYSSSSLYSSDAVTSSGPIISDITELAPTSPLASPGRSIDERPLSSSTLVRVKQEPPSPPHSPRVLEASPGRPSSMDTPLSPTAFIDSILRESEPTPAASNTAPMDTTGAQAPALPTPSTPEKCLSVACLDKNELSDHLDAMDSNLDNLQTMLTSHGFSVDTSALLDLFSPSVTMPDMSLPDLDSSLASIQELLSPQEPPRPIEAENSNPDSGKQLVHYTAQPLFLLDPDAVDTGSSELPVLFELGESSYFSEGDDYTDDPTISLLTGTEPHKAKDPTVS

[3] = NIH3T3 cell viability loss – ATP luminescence, mouse fibroblasts, counter-screen, dose response (AID 2010); assay type: functional, cell-based;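 note: cells exposed to compound for about 90 hours before reading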
[4] = test system: CHO; experiment: CHO cell viability loss, potency – luminescence, cytotoxicity control for TLR9-MyD88 binding inhibitor project, dose response (AID 588339); assay type: functional, cell-based, hamster; conditions: Cricetulus griseus;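 note: CHO cells stably coexpressing TLR9 and MyD88 fusions from primary screen; compound exposure lasted 48 hours before viability readout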
[5] = viability loss in HEK293 cells – cell-based, plate reader, cherry-picked samples, cytotoxicity control, dose response (AID 743446); assay type: functional
[6] = biological target: Mu-type opioid receptor (Homo sapiens, UniProt P35372); experiment: HTS Image-Based Screen for Agonists of the MOR Receptor. [Related pubchem assays (depositor defined):AID1777, AID1785, AID1786, AID2133]; assay type: functional;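 note: imaging of beta-arrestin GFP recruitment into spots after receptor activation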
[7] = biological target: T2, Kappa-type opioid receptor (Homo sapiens, UniProt P41145); assay type: functional
[8] = toxicity toward HepG2 liver cells – cell-based, plate reader, cherry-pick, antagonist series, cytotoxicity control, dose response (AID 743416); assay type: functional
[9] = alpha-synuclein stem-loop luciferase translation blockers – H4 neuroglioma cells, luminescence, confirmation (AID 1988); assay type: functional, cell-based
[10] = blockers of bursicon-stimulated LGR2 cAMP reporter – cell-based, HEK293, CRE-luciferase reporter, cherry pick, set 2, dose response (AID 743343); assay type: functional;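 note: transfected cells were stimulated with diluted bursicon conditioned medium after compound addition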
[11] = biological target: T3, Delta-type opioid receptor (Homo sapiens, UniProt P41143); experiment: HTS Image-Based Screen for Antagonists of the DOR Receptor. [Related pubchem assays (depositor defined):AID1777, AID1785, AID1786, AID2133]; assay type: functional
[12] = biological target: T3, Delta-type opioid receptor; experiment: HTS Image-Based Screen for Agonists of the DOR Receptor. [Related pubchem assays (depositor defined):AID1777, AID1786, AID2133]; assay type: functional
[13] = biological target: Beta-galactosidase (Escherichia coli, UniProt Q8VNN2); assay type: functional
[14] = general cell-killing toxicity readout – plate reader, dry powder samples, cytotoxicity control for PAX8 inhibitor project, dose response (AID 743021); assay type: functional, cell-based
[15] = luciferase reporter signal suppression in cells – H4 neuroglioma cells, luminescence, dose response (AID 1990); assay type: functional, cell-based
[16] = biological target: Paired box protein Pax-8 (Homo sapiens, UniProt Q06710); experiment: PAX8 transcriptional activity inhibition in RMG-I – RMG-I cells, luciferase, cherry-pick, dose response (AID 687027); assay type: functional, cell-based;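 note: luciferase reporter driven by Pax8 target thyroperoxidase promoter measured by SteadyGlo luminescence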
[17] = biological target: T2, Kappa-type opioid receptor; assay type: functional; remark: listed apart in the source
[18] = Trypanosoma cruzi growth suppression in host cells – NIH3T3 host cells, beta-gal luminescence, confirmation (AID 2044); assay type: functional, cell-based;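 note: intracellular parasites grown in NIH/3T3 mouse fibroblasts as host cells; luminescent beta-galactosidase reporter signal from transgenic T. cruzi replicating inside host cells; inhibitors lower the luminescence signal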
[19] = A549 cell cytotoxicity, dose response, cytotoxicity control, plate reader, cherry-pick, antagonist series (AID 743412); assay type: functional, cell-based
[20] = biological target: Beta Lactamase (Pseudomonas aeruginosa, UniProt Q932Y6); experiment: BLA reporter interference, concentration series – BLA reporter cells, FRET fluorescence, artefact control for TLR9-MyD88 binding inhibitor project, dose response (AID 588341); assay type: cell-based;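 note: cell based assay in CHO-K1 cells stably expressing beta-lactamase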
[21] = reduced cellular PGC1a acetyl-lysine signal – cell-based, cherry-picked samples, dose response (AID 720514); assay type: functional;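 note: potency may reflect raised or lowered acetylation signal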
[22] = biological target: Exodeoxyribonuclease V (Escherichia coli (strain K12), UniProt P04993+P07648+P08394); experiment: RecBCD inhibition via phage-restricted bacterial growth – absorbance, V66 E. coli, mutant T4 phage, counter-screen for AddAB inhibitor project, dose response (AID 492957); assay type: functional, cell-based, Escherichia coli str. K-12 substr. MG1655
[23] = HGIII-sPLA2 enzyme inhibition potency – biochemical, QFRET, IC50, dose response (AID 743457);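 note: green fluorescence rise as the enzyme cleaves BODIPY PC-A2 in liposomes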
[24] = test system: H9c2; experiment: cells; assay type: functional, cell-based; conditions: Rattus norvegicus, H9c2, Myocardium;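 note: confirmatory concentration-response retest of ultra-high-throughput screening hits for modulation of myocardial damage; cell death induced by hydrogen peroxide oxidative stress; compound pretreatment for 60 min then peroxide exposure for 2 h; potency is for protecting the cells against peroxide damage rather than for killing them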
[25] = test system: INS1; experiment: INS-1E survival protection against cytokine death – cell-based, luminescence, retest, dose response (AID 449756); assay type: functional; conditions: Rattus norvegicus;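 note: cell death triggered by IL-1 beta plus TNF-alpha plus IFN-gamma mixture; protective hits raise ATP signal compared with cytokine alone wells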
[26] = biological target: Heat shock protein HSP 90-alpha (Homo sapiens, UniProt P07900); assay type: functional, organism-based
[27] = Counterscreen for AddAB inhibitors: absorbance-based bacterial cell-based high throughput dose response assay for inhibitors of bacterial viability. [Related pubchem assays (depositor defined):AID435030, AID449728, AID449731, AID488942, AID488955, AID488956]; assay type: functional
[28] = biological target: T4, Tyrosine-protein phosphatase non-receptor type 22 (Homo sapiens, UniProt Q9Y2R2); assay type: functional
T4 sequence (Q9Y2R2 whole entry): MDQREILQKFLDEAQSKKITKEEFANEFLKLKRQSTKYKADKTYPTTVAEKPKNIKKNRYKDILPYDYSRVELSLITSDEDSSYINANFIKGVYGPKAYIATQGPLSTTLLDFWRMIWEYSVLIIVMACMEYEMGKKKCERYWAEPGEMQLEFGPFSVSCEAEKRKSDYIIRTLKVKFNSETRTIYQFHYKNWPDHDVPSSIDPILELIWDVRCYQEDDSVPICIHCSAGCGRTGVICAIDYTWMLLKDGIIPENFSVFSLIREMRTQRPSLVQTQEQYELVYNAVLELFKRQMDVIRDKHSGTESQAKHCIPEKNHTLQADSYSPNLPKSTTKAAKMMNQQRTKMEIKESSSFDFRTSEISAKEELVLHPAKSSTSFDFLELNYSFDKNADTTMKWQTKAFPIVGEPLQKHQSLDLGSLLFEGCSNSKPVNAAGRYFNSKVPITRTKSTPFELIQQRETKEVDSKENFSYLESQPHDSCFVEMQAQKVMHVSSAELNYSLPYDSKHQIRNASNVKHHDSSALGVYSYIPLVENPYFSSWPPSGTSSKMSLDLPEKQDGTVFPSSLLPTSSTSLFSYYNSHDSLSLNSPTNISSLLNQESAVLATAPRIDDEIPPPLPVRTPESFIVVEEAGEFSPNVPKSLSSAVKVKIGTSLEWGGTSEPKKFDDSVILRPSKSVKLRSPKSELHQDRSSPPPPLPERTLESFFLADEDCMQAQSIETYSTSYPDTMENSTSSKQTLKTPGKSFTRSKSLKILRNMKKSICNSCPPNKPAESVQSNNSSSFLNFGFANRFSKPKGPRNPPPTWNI

[29] = biological target: T5, Tyrosine-protein phosphatase non-receptor type 7 (Homo sapiens, UniProt P35236); assay type: functional
T5 sequence (P35236 whole entry): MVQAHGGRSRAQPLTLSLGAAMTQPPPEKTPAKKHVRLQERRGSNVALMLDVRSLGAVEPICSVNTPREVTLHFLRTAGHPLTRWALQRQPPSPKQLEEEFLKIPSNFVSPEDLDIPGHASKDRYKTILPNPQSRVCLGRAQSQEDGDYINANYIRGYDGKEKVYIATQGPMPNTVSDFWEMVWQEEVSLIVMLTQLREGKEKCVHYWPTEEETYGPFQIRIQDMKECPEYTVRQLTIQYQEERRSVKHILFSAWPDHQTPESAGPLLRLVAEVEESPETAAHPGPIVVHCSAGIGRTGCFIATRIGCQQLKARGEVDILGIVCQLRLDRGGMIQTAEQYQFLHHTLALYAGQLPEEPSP

[30] = biological target: T4, Tyrosine-protein phosphatase non-receptor type 22; assay type: functional; remark: listed apart in the source
[31] = biological target: Phospholipase A2 (Homo sapiens, UniProt P04054); assay type: functional;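 note: confirmatory dose-response counterscreen on phospholipase A2, testing hits that came from an ultra-high-throughput screen for ATG4B inhibitors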
[32] = biological target: T6, Cysteine protease ATG4B (Homo sapiens, UniProt Q9Y4P1); assay type: functional;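 note: Fluorescence-based dose-response confirmation assay measuring inhibition of ATG4B activity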
T6 sequence (Q9Y4P1 whole entry): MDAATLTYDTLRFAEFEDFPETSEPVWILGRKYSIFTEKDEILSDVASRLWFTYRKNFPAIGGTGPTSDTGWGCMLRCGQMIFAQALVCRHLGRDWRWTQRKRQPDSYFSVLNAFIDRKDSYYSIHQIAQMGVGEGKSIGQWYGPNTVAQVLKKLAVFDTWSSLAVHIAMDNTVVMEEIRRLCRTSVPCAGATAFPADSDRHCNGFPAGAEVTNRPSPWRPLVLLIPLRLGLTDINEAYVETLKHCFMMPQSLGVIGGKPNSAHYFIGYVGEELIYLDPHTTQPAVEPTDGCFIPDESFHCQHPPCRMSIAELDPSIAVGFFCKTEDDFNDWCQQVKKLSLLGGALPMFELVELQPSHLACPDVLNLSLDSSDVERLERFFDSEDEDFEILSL

[33] = Luminescent dose response cell-based high throughput screening assay for inhibitors of the Janus kinase 2 mutant JAK2V617F. [Related pubchem assays: 1446 (Primary screen.), 1521 (Confirmation assay.), 1486 (Counter screen.)]; assay type: functional
[34] = Luminescence Cell-Based Dose Retest to Confirm Inhibitors of Cancer Stem Cells. [Related pubchem assays (depositor defined):AID2717, AID2721]; assay type: functional; conditions: Homo sapiens
[35] = Luminescence Cell-Based Dose Response HTS to Identify Inhibitors of 5'UTR Stem-Loop Driven Prion Protein mRNA Translation in H4 Neuroglioblastoma Cells. [Related pubchem assays: 1827 (Project Summary), 1813 (Primary HTS)]; assay type: functional

T2 sequence (P41145 whole entry): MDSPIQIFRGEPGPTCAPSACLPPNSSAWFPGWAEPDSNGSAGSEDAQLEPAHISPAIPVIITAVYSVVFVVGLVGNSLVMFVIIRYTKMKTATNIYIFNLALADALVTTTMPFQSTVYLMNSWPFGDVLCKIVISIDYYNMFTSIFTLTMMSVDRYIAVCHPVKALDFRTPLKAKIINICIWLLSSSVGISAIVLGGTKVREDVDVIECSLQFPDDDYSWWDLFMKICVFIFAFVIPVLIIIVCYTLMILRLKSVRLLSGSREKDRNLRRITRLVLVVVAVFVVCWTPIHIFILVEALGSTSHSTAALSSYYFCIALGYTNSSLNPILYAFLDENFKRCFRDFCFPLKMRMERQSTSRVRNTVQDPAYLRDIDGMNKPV
Sequence of Exodeoxyribonuclease V (P04993 whole entry): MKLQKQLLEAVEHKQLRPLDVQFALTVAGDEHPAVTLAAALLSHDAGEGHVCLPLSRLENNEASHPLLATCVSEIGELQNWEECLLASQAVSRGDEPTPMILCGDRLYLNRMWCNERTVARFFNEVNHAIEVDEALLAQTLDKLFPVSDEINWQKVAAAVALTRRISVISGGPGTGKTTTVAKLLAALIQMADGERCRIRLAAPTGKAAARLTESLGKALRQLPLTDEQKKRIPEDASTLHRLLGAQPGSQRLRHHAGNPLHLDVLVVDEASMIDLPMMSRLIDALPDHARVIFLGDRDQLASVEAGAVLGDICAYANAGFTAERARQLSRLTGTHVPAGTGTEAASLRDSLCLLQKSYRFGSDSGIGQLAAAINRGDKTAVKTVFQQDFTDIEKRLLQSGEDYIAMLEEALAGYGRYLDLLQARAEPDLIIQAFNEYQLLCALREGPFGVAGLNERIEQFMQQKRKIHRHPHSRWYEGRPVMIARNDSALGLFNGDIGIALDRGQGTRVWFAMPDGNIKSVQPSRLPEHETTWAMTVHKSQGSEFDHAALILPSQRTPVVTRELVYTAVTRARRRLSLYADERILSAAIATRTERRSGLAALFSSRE
Sequence of Exodeoxyribonuclease V (P07648 whole entry): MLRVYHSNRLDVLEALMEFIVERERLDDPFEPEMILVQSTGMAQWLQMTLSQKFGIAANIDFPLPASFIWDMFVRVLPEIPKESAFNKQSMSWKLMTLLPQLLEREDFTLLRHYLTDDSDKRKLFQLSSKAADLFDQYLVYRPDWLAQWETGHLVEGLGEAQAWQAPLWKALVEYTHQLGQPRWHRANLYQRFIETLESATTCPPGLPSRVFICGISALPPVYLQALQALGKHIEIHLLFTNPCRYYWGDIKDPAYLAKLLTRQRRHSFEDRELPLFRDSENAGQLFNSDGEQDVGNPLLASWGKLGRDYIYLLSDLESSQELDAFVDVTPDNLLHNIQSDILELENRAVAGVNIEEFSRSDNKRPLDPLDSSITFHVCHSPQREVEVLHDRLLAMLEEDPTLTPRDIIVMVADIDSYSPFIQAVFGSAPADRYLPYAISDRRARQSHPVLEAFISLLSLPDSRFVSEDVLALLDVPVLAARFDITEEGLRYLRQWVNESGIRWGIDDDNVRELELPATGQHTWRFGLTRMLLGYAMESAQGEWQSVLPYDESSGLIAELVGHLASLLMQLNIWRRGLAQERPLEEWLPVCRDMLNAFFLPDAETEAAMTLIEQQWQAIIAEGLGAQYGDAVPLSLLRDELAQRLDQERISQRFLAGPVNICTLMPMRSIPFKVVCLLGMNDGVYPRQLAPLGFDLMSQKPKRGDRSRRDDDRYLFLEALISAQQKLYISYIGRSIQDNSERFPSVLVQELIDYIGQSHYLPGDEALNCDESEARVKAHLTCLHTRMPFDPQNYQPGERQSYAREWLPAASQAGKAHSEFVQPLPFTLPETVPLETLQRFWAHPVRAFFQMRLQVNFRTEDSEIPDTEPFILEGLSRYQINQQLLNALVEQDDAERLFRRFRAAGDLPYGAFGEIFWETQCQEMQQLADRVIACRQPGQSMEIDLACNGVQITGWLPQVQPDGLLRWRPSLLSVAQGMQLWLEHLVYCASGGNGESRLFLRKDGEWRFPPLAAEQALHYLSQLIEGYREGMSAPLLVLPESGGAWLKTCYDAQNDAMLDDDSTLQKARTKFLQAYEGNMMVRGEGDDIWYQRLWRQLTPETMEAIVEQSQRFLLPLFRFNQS
Sequence of Exodeoxyribonuclease V (P08394 whole entry): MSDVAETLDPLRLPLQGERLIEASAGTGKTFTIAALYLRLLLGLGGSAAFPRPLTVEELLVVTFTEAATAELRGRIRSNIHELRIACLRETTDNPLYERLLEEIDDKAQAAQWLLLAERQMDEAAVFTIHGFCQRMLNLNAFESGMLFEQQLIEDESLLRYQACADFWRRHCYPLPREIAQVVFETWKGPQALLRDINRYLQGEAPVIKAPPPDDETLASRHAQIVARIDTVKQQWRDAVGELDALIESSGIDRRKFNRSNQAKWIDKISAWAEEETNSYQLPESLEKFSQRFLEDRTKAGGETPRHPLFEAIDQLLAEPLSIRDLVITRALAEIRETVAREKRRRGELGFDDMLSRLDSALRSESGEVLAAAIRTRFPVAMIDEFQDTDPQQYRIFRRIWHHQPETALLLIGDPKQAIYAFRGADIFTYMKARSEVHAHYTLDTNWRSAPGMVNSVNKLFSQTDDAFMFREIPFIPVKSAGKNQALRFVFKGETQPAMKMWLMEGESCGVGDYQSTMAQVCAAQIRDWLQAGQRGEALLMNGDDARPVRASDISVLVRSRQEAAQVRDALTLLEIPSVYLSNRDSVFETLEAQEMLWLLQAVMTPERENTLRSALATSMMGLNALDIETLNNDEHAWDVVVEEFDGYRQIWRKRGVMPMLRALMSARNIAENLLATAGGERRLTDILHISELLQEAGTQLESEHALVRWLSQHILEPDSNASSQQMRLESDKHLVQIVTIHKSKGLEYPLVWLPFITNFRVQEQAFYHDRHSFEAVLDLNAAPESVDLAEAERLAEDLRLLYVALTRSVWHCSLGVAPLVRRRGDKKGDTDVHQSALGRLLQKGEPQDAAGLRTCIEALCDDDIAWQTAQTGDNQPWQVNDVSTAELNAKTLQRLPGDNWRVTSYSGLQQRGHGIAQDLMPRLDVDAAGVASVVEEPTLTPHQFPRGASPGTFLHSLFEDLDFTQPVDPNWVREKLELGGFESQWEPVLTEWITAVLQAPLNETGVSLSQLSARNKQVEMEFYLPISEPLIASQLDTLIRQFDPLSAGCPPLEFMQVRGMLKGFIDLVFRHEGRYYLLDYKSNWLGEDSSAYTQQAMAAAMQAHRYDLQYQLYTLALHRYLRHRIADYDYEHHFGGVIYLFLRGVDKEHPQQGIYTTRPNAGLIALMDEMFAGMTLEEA
T3 sequence (P41143 whole entry): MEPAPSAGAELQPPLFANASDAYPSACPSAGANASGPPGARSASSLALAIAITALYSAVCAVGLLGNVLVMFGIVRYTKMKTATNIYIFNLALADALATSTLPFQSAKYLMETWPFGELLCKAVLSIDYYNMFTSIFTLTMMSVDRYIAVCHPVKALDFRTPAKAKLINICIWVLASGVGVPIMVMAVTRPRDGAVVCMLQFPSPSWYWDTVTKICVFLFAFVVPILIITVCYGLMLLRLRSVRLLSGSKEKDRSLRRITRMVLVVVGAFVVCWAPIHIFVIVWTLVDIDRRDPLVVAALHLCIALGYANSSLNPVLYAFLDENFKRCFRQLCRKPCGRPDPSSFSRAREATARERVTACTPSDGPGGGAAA
Sequence of Beta-galactosidase (Q8VNN2 whole entry): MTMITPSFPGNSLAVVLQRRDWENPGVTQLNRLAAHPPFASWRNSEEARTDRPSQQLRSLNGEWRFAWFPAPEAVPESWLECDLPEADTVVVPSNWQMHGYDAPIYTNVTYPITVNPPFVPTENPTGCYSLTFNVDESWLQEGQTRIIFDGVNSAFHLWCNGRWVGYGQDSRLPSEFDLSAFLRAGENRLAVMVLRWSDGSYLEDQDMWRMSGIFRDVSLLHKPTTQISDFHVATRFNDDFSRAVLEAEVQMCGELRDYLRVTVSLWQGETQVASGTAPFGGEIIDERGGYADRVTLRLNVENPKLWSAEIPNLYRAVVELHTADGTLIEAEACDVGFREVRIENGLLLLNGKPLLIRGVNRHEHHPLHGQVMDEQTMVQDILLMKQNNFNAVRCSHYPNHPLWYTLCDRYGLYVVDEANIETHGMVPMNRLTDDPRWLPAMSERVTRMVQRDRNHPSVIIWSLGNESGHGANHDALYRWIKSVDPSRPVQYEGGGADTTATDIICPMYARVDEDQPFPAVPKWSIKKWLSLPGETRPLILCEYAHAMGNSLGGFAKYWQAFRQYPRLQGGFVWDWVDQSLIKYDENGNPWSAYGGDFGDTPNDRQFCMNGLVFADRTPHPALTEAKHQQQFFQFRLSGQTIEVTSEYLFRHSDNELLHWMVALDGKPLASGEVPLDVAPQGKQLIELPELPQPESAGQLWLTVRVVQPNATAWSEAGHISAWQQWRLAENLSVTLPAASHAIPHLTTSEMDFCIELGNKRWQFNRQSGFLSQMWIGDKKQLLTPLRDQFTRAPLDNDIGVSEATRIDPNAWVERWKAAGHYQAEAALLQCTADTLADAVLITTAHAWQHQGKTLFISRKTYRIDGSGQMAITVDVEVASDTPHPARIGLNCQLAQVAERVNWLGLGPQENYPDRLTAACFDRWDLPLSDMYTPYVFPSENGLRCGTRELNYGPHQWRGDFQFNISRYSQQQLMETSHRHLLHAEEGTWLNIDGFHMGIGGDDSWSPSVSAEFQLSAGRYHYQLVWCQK
Sequence of Beta Lactamase (Q932Y6 whole entry): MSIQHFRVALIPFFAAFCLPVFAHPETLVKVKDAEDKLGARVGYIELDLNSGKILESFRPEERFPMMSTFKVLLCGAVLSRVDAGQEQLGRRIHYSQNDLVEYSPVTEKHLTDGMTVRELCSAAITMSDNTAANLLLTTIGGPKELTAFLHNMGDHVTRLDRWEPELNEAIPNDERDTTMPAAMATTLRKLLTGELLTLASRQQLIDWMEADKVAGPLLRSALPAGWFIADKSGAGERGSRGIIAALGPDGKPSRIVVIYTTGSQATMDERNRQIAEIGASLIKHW

In the case of `S=c1sc2c(Cl)ncnc2n1-c1ccccc1`, the AC50 [1] was 24.5 µM (active), the EC50 [2] was 17.6 µM (active) and the EC50 [3] was 14.4 µM (active). The IC50 [4] was 9.35 µM (active), the AC50 [5] was 8.88 µM (active) and the EC50 [6] was > 32 µM (inactive). The IC50 [7] was 7.27 µM (active), the AC50 [8] was 13.2 µM (active) and the EC50 [9] was 7.71 µM (active). The AC50 [10] was 17.8 µM (active), the IC50 [11] was 4.7 µM (active) and the EC50 [12] was > 32 µM (inactive). For the same compound, the EC50 [13] was > 31.5 µM (inactive), the AC50 [14] was 60.6 µM (active) and the EC50 [15] was 8.14 µM (active). For the same compound, the AC50 [16] was 7.52 µM (active), the pIC50 [17] was 5.45 and the EC50 [18] was 2.26 µM (active). The AC50 [19] was 8.81 µM (active), the IC50 [20] was > 49.7 µM (inactive) and the AC50 [21] was 2.79 µM (active).

With `Cc1onc(-c2ccccc2)c1C(=O)NC(=S)NNC(=O)c1ccccc1O` the IC50 [22] was > 119 µM (inactive), the IC50 [23] was > 122 µM (inactive) and the IC50 [24] was > 79 µM (inactive). For the same compound, the AC50 [25] was 7.21 µM (active), the AC50 [26] was 2.92 µM (active) and the IC50 [27] was > 119 µM (inactive).

In the case of `NC(=O)Nc1ccccc1C(=O)NCCc1ccccc1`, the IC50 [28] was > 79.4 µM (inactive), the IC50 [29] was > 79.4 µM (inactive) and the IC50 [30] was > 79.4 µM (inactive).

For `COc1ccc(N(CC(=O)NC(C)C)C(=O)CCC(=O)Nc2ccccn2)cc1`, the IC50 [28] was > 79.4 µM (inactive), the IC50 [29] was > 79.4 µM (inactive) and the IC50 [30] was > 79.4 µM (inactive).

For `COc1cccc(/C=N/NC(=O)c2[nH]c(C)c(C(=O)N/N=C/c3cccc(OC)c3O)c2C)c1O`, the IC50 [22] was > 119 µM (inactive), the IC50 [31] was 9.88 µM (active) and the IC50 [32] was 7.03 µM (active). For the same compound, the EC50 [9] was 15.3 µM (active), the IC50 [33] was 2.8 µM (active) and the AC50 [34] was 2.44 µM (active). The EC50 [35] was 18.9 µM (active), the EC50 [15] was 9.94 µM (active) and the IC50 [27] was > 119 µM (inactive).
